# Measured values taken from patent US20110028566A1, “COMPOSITIONS AND PRODUCTS CONTAINING CYCLOALIPHATIC DIOL ANTIMICROBIAL AGENTS AND METHODS OF USING THE COMPOSITIONS AND PRODUCTS” (EASTMAN CHEMICAL COMPANY, priority 2009, published 2011).
# Legend:
# Assay in all cases: Microbial challenge testing in BPW
# Format in all cases: cell-based
# Proteus vulgaris = system: Proteus vulgaris
# Outline: (§1)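 Bacteria, including ATCC and wild-type isolates from chemical products, were grown in tryptose soy broth with 1% dextrose for at least 96 hours. Inoculum was sized by plate count and turbidity (NTU) and added to test-material substrates to give 10^5 to 10^6 cfu/mL initially. Incubation ran 14 days at 35° C., then at room temperature.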
# Bacillus subtilis = system: Bacillus subtilis
# Outline: as §1
# Staphylococcus aureus = system: Staphylococcus aureus
# Outline: as §1
# Pseudomonas aeruginosa = system: Pseudomonas aeruginosa
# Outline: as §1
# Streptococcus mutans = system: Streptococcus mutans
# Outline: as §1
# Escherichia coli = system: Escherichia coli
# Outline: as §1
# [1] = system: Staphylococcus epidermidis
# Outline: as §1
# Aeromonas sp. = system: Aeromonas sp.
# Outline: as §1
# Burkholderia cepacia = system: Burkholderia cepacia
# Outline: as §1
compound,measurement,setting,value
"CC1(C)C(O)C(C)(C)C1O (stereo not drawn) [TMCD, 2,2,4,4-tetramethyl-1,3-cyclobutanediol]",Grade code P. vulqaris,"Proteus vulgaris; 0.5%, 3 days incubation","4 (1001 to 10,000 colonies (thus 10,000 cfu/mL to 100,000 cfu/mL))"
same,Grade code P. vulqaris,"Proteus vulgaris; 0.5%, 13 days incubation","4 (1001 to 10,000 colonies (thus 10,000 cfu/mL to 100,000 cfu/mL))"
same,Grade code P. vulqaris,"Proteus vulgaris; 0.5%, 30 days incubation","4 (1001 to 10,000 colonies (thus 10,000 cfu/mL to 100,000 cfu/mL))"
same,Grade code P. vulqaris,"Proteus vulgaris; 1.25%, 3 days incubation","3 (101 to 1000 colonies (thus 1000 to 10,000 cfu/mL))"
same,Grade code P. vulqaris,"Proteus vulgaris; 1.25%, 13 days incubation",2 (52 to 100 colonies counted (thus 520 to 1000 cfu/mL))
same,Grade code P. vulqaris,"Proteus vulgaris; 1.25%, 30 days incubation",0 (No growth detected or <1 colony (thus <10 cfu/mL))
same,Grade code P. vulqaris,"Proteus vulgaris; 2.5%, 3 days incubation","4 (1001 to 10,000 colonies (thus 10,000 cfu/mL to 100,000 cfu/mL))"
same,Grade code P. vulqaris,"Proteus vulgaris; 2.5%, 13 days incubation",1 (1 to 51 colonies counted (thus 10 to 510 cfu/mL))
same,Grade code P. vulqaris,"Proteus vulgaris; 2.5%, 30 days incubation",0 (No growth detected or <1 colony (thus <10 cfu/mL))
same,Grade code B. subtilis,"Bacillus subtilis; 0.5%, 3 days incubation","4 (1001 to 10,000 colonies (thus 10,000 cfu/mL to 100,000 cfu/mL))"
same,Grade code B. subtilis,"Bacillus subtilis; 0.5%, 14 days incubation","4 (1001 to 10,000 colonies (thus 10,000 cfu/mL to 100,000 cfu/mL))"
same,Grade code B. subtilis,"Bacillus subtilis; 0.5%, 30 days incubation","4 (1001 to 10,000 colonies (thus 10,000 cfu/mL to 100,000 cfu/mL))"
same,Grade code B. subtilis,"Bacillus subtilis; 1.25%, 3 days incubation","4 (1001 to 10,000 colonies (thus 10,000 cfu/mL to 100,000 cfu/mL))"
same,Grade code B. subtilis,"Bacillus subtilis; 1.25%, 14 days incubation","4 (1001 to 10,000 colonies (thus 10,000 cfu/mL to 100,000 cfu/mL))"
same,Grade code B. subtilis,"Bacillus subtilis; 1.25%, 30 days incubation","4 (1001 to 10,000 colonies (thus 10,000 cfu/mL to 100,000 cfu/mL))"
same,Grade code B. subtilis,"Bacillus subtilis; 2.5%, 3 days incubation","4 (1001 to 10,000 colonies (thus 10,000 cfu/mL to 100,000 cfu/mL))"
same,Grade code B. subtilis,"Bacillus subtilis; 2.5%, 14 days incubation","4 (1001 to 10,000 colonies (thus 10,000 cfu/mL to 100,000 cfu/mL))"
same,Grade code B. subtilis,"Bacillus subtilis; 2.5%, 30 days incubation","4 (1001 to 10,000 colonies (thus 10,000 cfu/mL to 100,000 cfu/mL))"
same,Grade code S. aureus,"Staphylococcus aureus; 0.5%, 3 days incubation","4 (1001 to 10,000 colonies (thus 10,000 cfu/mL to 100,000 cfu/mL))"
same,Grade code S. aureus,"Staphylococcus aureus; 0.5%, 14 days incubation","4 (1001 to 10,000 colonies (thus 10,000 cfu/mL to 100,000 cfu/mL))"
same,Grade code S. aureus,"Staphylococcus aureus; 0.5%, 30 days incubation","4 (1001 to 10,000 colonies (thus 10,000 cfu/mL to 100,000 cfu/mL))"
same,Grade code S. aureus,"Staphylococcus aureus; 1.25%, 3 days incubation","4 (1001 to 10,000 colonies (thus 10,000 cfu/mL to 100,000 cfu/mL))"
same,Grade code S. aureus,"Staphylococcus aureus; 1.25%, 14 days incubation","4 (1001 to 10,000 colonies (thus 10,000 cfu/mL to 100,000 cfu/mL))"
same,Grade code S. aureus,"Staphylococcus aureus; 1.25%, 30 days incubation","4 (1001 to 10,000 colonies (thus 10,000 cfu/mL to 100,000 cfu/mL))"
same,Grade code S. aureus,"Staphylococcus aureus; 2.5%, 3 days incubation",2 (52 to 100 colonies counted (thus 520 to 1000 cfu/mL))
same,Grade code S. aureus,"Staphylococcus aureus; 2.5%, 14 days incubation",1 (1 to 51 colonies counted (thus 10 to 510 cfu/mL))
same,Grade code S. aureus,"Staphylococcus aureus; 2.5%, 30 days incubation",1 (1 to 51 colonies counted (thus 10 to 510 cfu/mL))
same,Grade code P. aeruginosa,"Pseudomonas aeruginosa; 0.5%, 3 days incubation","4 (1001 to 10,000 colonies (thus 10,000 cfu/mL to 100,000 cfu/mL))"
same,Grade code P. aeruginosa,"Pseudomonas aeruginosa; 0.5%, 13 days incubation","4 (1001 to 10,000 colonies (thus 10,000 cfu/mL to 100,000 cfu/mL))"
same,Grade code P. aeruginosa,"Pseudomonas aeruginosa; 0.5%, 30 days incubation","4 (1001 to 10,000 colonies (thus 10,000 cfu/mL to 100,000 cfu/mL))"
same,Grade code P. aeruginosa,"Pseudomonas aeruginosa; 1.25%, 3 days incubation","4 (1001 to 10,000 colonies (thus 10,000 cfu/mL to 100,000 cfu/mL))"
same,Grade code P. aeruginosa,"Pseudomonas aeruginosa; 1.25%, 13 days incubation","4 (1001 to 10,000 colonies (thus 10,000 cfu/mL to 100,000 cfu/mL))"
same,Grade code P. aeruginosa,"Pseudomonas aeruginosa; 1.25%, 30 days incubation","4 (1001 to 10,000 colonies (thus 10,000 cfu/mL to 100,000 cfu/mL))"
same,Grade code P. aeruginosa,"Pseudomonas aeruginosa; 2.5%, 3 days incubation","4 (1001 to 10,000 colonies (thus 10,000 cfu/mL to 100,000 cfu/mL))"
same,Grade code P. aeruginosa,"Pseudomonas aeruginosa; 2.5%, 13 days incubation","3 (101 to 1000 colonies (thus 1000 to 10,000 cfu/mL))"
same,Grade code P. aeruginosa,"Pseudomonas aeruginosa; 2.5%, 30 days incubation","4 (1001 to 10,000 colonies (thus 10,000 cfu/mL to 100,000 cfu/mL))"
same,Grade code S. mutans,"Streptococcus mutans; 0.5%, 3 days incubation","4 (1001 to 10,000 colonies (thus 10,000 cfu/mL to 100,000 cfu/mL))"
same,Grade code S. mutans,"Streptococcus mutans; 0.5%, 13 days incubation","4 (1001 to 10,000 colonies (thus 10,000 cfu/mL to 100,000 cfu/mL))"
same,Grade code S. mutans,"Streptococcus mutans; 0.5%, 30 days incubation","4 (1001 to 10,000 colonies (thus 10,000 cfu/mL to 100,000 cfu/mL))"
same,Grade code S. mutans,"Streptococcus mutans; 1.25%, 3 days incubation","4 (1001 to 10,000 colonies (thus 10,000 cfu/mL to 100,000 cfu/mL))"
same,Grade code S. mutans,"Streptococcus mutans; 1.25%, 13 days incubation","4 (1001 to 10,000 colonies (thus 10,000 cfu/mL to 100,000 cfu/mL))"
same,Grade code S. mutans,"Streptococcus mutans; 1.25%, 30 days incubation","4 (1001 to 10,000 colonies (thus 10,000 cfu/mL to 100,000 cfu/mL))"
same,Grade code S. mutans,"Streptococcus mutans; 2.5%, 3 days incubation","3 (101 to 1000 colonies (thus 1000 to 10,000 cfu/mL))"
same,Grade code S. mutans,"Streptococcus mutans; 2.5%, 13 days incubation",1 (1 to 51 colonies counted (thus 10 to 510 cfu/mL))
same,Grade code S. mutans,"Streptococcus mutans; 2.5%, 30 days incubation",0 (No growth detected or <1 colony (thus <10 cfu/mL))
same,Grade code E. coli,"Escherichia coli; 0.5%, 3 days incubation","5 (More than 10,000 colonies estimated (thus >100,000 cfu/mL))"
same,Grade code E. coli,"Escherichia coli; 0.5%, 14 days incubation","4 (1001 to 10,000 colonies (thus 10,000 cfu/mL to 100,000 cfu/mL))"
same,Grade code E. coli,"Escherichia coli; 0.5%, 30 days incubation","4 (1001 to 10,000 colonies (thus 10,000 cfu/mL to 100,000 cfu/mL))"
same,Grade code E. coli,"Escherichia coli; 1.25%, 3 days incubation","4 (1001 to 10,000 colonies (thus 10,000 cfu/mL to 100,000 cfu/mL))"
same,Grade code E. coli,"Escherichia coli; 1.25%, 14 days incubation","4 (1001 to 10,000 colonies (thus 10,000 cfu/mL to 100,000 cfu/mL))"
same,Grade code E. coli,"Escherichia coli; 1.25%, 30 days incubation","4 (1001 to 10,000 colonies (thus 10,000 cfu/mL to 100,000 cfu/mL))"
same,Grade code E. coli,"Escherichia coli; 2.5%, 3 days incubation","4 (1001 to 10,000 colonies (thus 10,000 cfu/mL to 100,000 cfu/mL))"
same,Grade code E. coli,"Escherichia coli; 2.5%, 14 days incubation","4 (1001 to 10,000 colonies (thus 10,000 cfu/mL to 100,000 cfu/mL))"
same,Grade code E. coli,"Escherichia coli; 2.5%, 30 days incubation","4 (1001 to 10,000 colonies (thus 10,000 cfu/mL to 100,000 cfu/mL))"
same,Grade code S. epidermidis,"[1]; 0.5%, 3 days incubation","4 (1001 to 10,000 colonies (thus 10,000 cfu/mL to 100,000 cfu/mL))"
same,Grade code S. epidermidis,"[1]; 0.5%, 13 days incubation","4 (1001 to 10,000 colonies (thus 10,000 cfu/mL to 100,000 cfu/mL))"
same,Grade code S. epidermidis,"[1]; 0.5%, 30 days incubation","4 (1001 to 10,000 colonies (thus 10,000 cfu/mL to 100,000 cfu/mL))"
same,Grade code S. epidermidis,"[1]; 1.25%, 3 days incubation",2 (52 to 100 colonies counted (thus 520 to 1000 cfu/mL))
same,Grade code S. epidermidis,"[1]; 1.25%, 13 days incubation","3 (101 to 1000 colonies (thus 1000 to 10,000 cfu/mL))"
same,Grade code S. epidermidis,"[1]; 1.25%, 30 days incubation","4 (1001 to 10,000 colonies (thus 10,000 cfu/mL to 100,000 cfu/mL))"
same,Grade code S. epidermidis,"[1]; 2.5%, 3 days incubation",2 (52 to 100 colonies counted (thus 520 to 1000 cfu/mL))
same,Grade code S. epidermidis,"[1]; 2.5%, 13 days incubation",2 (52 to 100 colonies counted (thus 520 to 1000 cfu/mL))
same,Grade code S. epidermidis,"[1]; 2.5%, 30 days incubation",2 (52 to 100 colonies counted (thus 520 to 1000 cfu/mL))
same,Grade code Aeromonas sp,"Aeromonas sp.; 0.5%, 3 days incubation","5 (More than 10,000 colonies estimated (thus >100,000 cfu/mL))"
same,Grade code Aeromonas sp,"Aeromonas sp.; 0.5%, 14 days incubation","4 (1001 to 10,000 colonies (thus 10,000 cfu/mL to 100,000 cfu/mL))"
same,Grade code Aeromonas sp,"Aeromonas sp.; 0.5%, 30 days incubation","4 (1001 to 10,000 colonies (thus 10,000 cfu/mL to 100,000 cfu/mL))"
same,Grade code Aeromonas sp,"Aeromonas sp.; 1.25%, 3 days incubation","4 (1001 to 10,000 colonies (thus 10,000 cfu/mL to 100,000 cfu/mL))"
same,Grade code Aeromonas sp,"Aeromonas sp.; 1.25%, 14 days incubation","4 (1001 to 10,000 colonies (thus 10,000 cfu/mL to 100,000 cfu/mL))"
same,Grade code Aeromonas sp,"Aeromonas sp.; 1.25%, 30 days incubation","4 (1001 to 10,000 colonies (thus 10,000 cfu/mL to 100,000 cfu/mL))"
same,Grade code Aeromonas sp,"Aeromonas sp.; 2.5%, 3 days incubation","4 (1001 to 10,000 colonies (thus 10,000 cfu/mL to 100,000 cfu/mL))"
same,Grade code Aeromonas sp,"Aeromonas sp.; 2.5%, 14 days incubation",2 (52 to 100 colonies counted (thus 520 to 1000 cfu/mL))
same,Grade code Aeromonas sp,"Aeromonas sp.; 2.5%, 30 days incubation","3 (101 to 1000 colonies (thus 1000 to 10,000 cfu/mL))"
same,Grade code B. cepacia,"Burkholderia cepacia; 0.5%, 3 days incubation","4 (1001 to 10,000 colonies (thus 10,000 cfu/mL to 100,000 cfu/mL))"
same,Grade code B. cepacia,"Burkholderia cepacia; 0.5%, 14 days incubation","4 (1001 to 10,000 colonies (thus 10,000 cfu/mL to 100,000 cfu/mL))"
same,Grade code B. cepacia,"Burkholderia cepacia; 0.5%, 30 days incubation","4 (1001 to 10,000 colonies (thus 10,000 cfu/mL to 100,000 cfu/mL))"
same,Grade code B. cepacia,"Burkholderia cepacia; 1.25%, 3 days incubation","3 (101 to 1000 colonies (thus 1000 to 10,000 cfu/mL))"
same,Grade code B. cepacia,"Burkholderia cepacia; 1.25%, 14 days incubation",2 (52 to 100 colonies counted (thus 520 to 1000 cfu/mL))
same,Grade code B. cepacia,"Burkholderia cepacia; 1.25%, 30 days incubation","4 (1001 to 10,000 colonies (thus 10,000 cfu/mL to 100,000 cfu/mL))"
same,Grade code B. cepacia,"Burkholderia cepacia; 2.5%, 3 days incubation",1 (1 to 51 colonies counted (thus 10 to 510 cfu/mL))
same,Grade code B. cepacia,"Burkholderia cepacia; 2.5%, 14 days incubation",0 (No growth detected or <1 colony (thus <10 cfu/mL))
same,Grade code B. cepacia,"Burkholderia cepacia; 2.5%, 30 days incubation",0 (No growth detected or <1 colony (thus <10 cfu/mL))
